From ChEMBL document CHEMBL5365438, “2-Substituted 1,5-benzothiazepine-based HDAC inhibitors exert anticancer activities on human solid and acute myeloid leukemia cell lines” (Bioorg Med Chem, 2023)
Activity calls are given as the source filed them. The rule behind the calls is not given here.

Tests used:
HCT-116 [1] = test: Induction of cell cycle arrest in human HCT-116 assessed as accumulation of cells in G2/M phase at 1 to 5 uM incubated for 24 hrs by FACS analysis relative to SAHA; assay type: functional; conditions: dose 1-5 µM
HCT-116 [2] = test: Induction of apoptosis in human HCT-116 cells assessed as increased p21 protein expression level at 1 to 5 uM incubated for 24 hrs by immunoblotting analysis; assay type: functional, cell-based; conditions: dose 1-5 µM
U-937 [3] = test: Induction of cell cycle arrest in human U-937 assessed as reduced accumulation of cells in S phase at 1 uM incubated for 24 hrs by FACS analysis; assay type: functional, cell-based
[4] = target: T1, Histone deacetylase (Homo sapiens) (UniProt Q13547+O15379+Q9UBN7+Q92769+Q9UQL6+Q8WUI4+Q9BY41+Q96DB2+P56524+Q9UKV0+Q969S8); test: Inhibition of HDAC in human U-937 cells assessed as upregulation of acetyl alpha-tubulin level at 5 uM incubated for 24 hrs by immunoblotting analysis; assay type: cell-based
U-937 [5] = test: Induction of cell cycle arrest in human U-937 assessed as increase accumulation of cells in G2/M phase at 1 to 5 uM incubated for 24 hrs by FACS analysis; assay type: functional, cell-based; conditions: dose 1-5 µM
Histone deacetylase = assay type: subcellular, Homo sapiens, Nucleus; conditions: hela
Description: Inhibition of HDAC in human HeLa cell nuclear extract using Kac fluorogenic peptide as substrate containing residues 379-382 of p53 by fluorescence assay

HCT-116 [6] = test: Cytotoxicity against human HCT-116 cells assessed as cell death at 5 uM incubated for 24 hrs by PI staining based FACS analysis relative to control; assay type: functional
U-937 [7] = test: Induction of apoptosis in human U-937 cells assessed as increased p21 protein expression level at 1 to 5 uM incubated for 24 hrs by immunoblotting analysis; assay type: functional, cell-based; conditions: dose 1-5 µM
HCT-116 [8] = test: Cytotoxicity against human HCT-116 cells assessed as reduction in cell death at 1 uM incubated for 24 hrs by PI staining based FACS analysis; assay type: functional
U-937 [9] = test: Induction of cell cycle arrest in human U-937 assessed as decrease accumulation of cells in G1 phase at 5 uM incubated for 24 hrs by FACS analysis; assay type: functional, cell-based
[10] = target: T1, Histone deacetylase (Homo sapiens); test: Inhibition of HDAC in human U-937 cells assessed as upregulation of histone H3 acetylation at lysine 14 residue at 5 uM incubated for 24 hrs by immunoblotting analysis; assay type: cell-based
U-937 [11] = test: Cytotoxicity against human U-937 cells assessed as cell death at 1 to 5 uM incubated for 24 hrs by PI staining based FACS analysis relative to control; assay type: functional; conditions: dose 1-5 µM
[12] = target: T1, Histone deacetylase (Homo sapiens); test: Inhibition of HDAC in human HCT-116 cells assessed as upregulation of acetyl alpha-tubulin level at 1 to 5 uM incubated for 24 hrs by immunoblotting analysis; assay type: cell-based; conditions: dose 1-5 µM
[13] = target: T2, Protein deacetylase HDAC6 (Homo sapiens) (UniProt Q9UBN7); test: Inhibition of HDAC6 (unknown origin) at 10 uM using fluorogenic peptide as substrate pre-incubated for 15 mins followed by substrate addition incubated for 30 mins by fluorescence assay; conditions: time 45.0 min
T2 sequence (whole entry): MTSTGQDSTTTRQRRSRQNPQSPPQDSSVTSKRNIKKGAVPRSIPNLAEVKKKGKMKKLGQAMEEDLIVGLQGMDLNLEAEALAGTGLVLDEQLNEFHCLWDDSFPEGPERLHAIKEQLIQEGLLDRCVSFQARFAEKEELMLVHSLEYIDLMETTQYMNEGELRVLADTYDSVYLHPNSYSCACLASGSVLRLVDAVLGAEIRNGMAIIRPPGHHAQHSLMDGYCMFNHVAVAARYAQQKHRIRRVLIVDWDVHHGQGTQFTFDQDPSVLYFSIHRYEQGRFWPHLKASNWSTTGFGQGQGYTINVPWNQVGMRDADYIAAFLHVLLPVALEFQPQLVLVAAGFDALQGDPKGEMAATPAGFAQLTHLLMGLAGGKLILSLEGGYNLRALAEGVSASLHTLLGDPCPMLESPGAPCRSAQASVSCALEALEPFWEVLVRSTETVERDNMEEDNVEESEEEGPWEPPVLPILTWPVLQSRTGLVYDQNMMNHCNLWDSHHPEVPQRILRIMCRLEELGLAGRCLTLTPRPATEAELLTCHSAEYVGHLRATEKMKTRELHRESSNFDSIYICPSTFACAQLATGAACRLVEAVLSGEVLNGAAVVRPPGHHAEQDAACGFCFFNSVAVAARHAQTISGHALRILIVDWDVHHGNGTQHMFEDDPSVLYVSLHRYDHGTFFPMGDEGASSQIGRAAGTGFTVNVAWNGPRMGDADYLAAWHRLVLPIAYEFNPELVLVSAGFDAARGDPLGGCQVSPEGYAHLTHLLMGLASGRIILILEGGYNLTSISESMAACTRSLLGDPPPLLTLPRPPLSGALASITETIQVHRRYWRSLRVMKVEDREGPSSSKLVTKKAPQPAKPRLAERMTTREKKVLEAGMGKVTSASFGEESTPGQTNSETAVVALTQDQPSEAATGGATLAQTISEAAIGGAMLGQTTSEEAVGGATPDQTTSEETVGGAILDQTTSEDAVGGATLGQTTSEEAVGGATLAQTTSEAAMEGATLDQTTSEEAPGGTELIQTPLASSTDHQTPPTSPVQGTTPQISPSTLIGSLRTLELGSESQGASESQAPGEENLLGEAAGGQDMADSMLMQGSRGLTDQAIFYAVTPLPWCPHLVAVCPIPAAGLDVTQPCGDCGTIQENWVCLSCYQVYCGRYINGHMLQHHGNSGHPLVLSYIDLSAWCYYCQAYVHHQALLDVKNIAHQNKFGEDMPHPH

Histone deacetylase 1 [14] = target: T3, Histone deacetylase 1 (Homo sapiens, UniProt Q13547); test: Inhibition of HDAC1 (unknown origin) using fluorogenic peptide as the substrate containing residues 379-382 of p53 pre-incubated for 15 mins followed by substrate addition incubated for 30 mins by multimode plate reader
Histone deacetylase 1 [15] = target: T3, Histone deacetylase 1; test: Inhibition of HDAC1 (unknown origin) at 10 uM using fluorogenic peptide as substrate pre-incubated for 15 mins followed by substrate addition incubated for 30 mins by fluorescence assay relative to control; conditions: time 45.0 min
U-937 [16] = test: Induction of cell cycle arrest in human U-937 assessed as decrease accumulation of cells in G1 phase at 1 to 5 uM incubated for 24 hrs by FACS analysis; assay type: functional, cell-based; conditions: dose 1-5 µM
HCT-116 [17] = test: Induction of cell cycle arrest in human HCT-116 assessed as decrease accumulation of cells in G1 phase at 1 to 5 uM incubated for 24 hrs by FACS analysis; assay type: functional, cell-based; conditions: dose 1-5 µM
[18] = target: T1, Histone deacetylase (Homo sapiens); test: Inhibition of HDAC in human HCT-116 cells assessed as upregulation of histone H3 acetylation at lysine 14 residue at 1 uM incubated for 24 hrs by immunoblotting analysis; assay type: cell-based
[19] = target: T1, Histone deacetylase (Homo sapiens); test: Inhibition of HDAC in human U-937 cells assessed as upregulation of histone H3 acetylation at lysine 14 residue at 1 uM incubated for 24 hrs by immunoblotting analysis; assay type: cell-based
U-937 [20] = test: Induction of cell cycle arrest in human U-937 assessed as decrease accumulation of cells in S phase at 1 to 5 uM incubated for 24 hrs by FACS analysis; assay type: functional, cell-based; conditions: dose 1-5 µM
HCT-116 [21] = test: Induction of cell cycle arrest in human HCT-116 assessed as decrease accumulation of cells in S phase at 1 to 5 uM incubated for 24 hrs by FACS analysis; assay type: functional, cell-based; conditions: dose 1-5 µM

T3 sequence (Q13547 whole entry, the tested form may be a part): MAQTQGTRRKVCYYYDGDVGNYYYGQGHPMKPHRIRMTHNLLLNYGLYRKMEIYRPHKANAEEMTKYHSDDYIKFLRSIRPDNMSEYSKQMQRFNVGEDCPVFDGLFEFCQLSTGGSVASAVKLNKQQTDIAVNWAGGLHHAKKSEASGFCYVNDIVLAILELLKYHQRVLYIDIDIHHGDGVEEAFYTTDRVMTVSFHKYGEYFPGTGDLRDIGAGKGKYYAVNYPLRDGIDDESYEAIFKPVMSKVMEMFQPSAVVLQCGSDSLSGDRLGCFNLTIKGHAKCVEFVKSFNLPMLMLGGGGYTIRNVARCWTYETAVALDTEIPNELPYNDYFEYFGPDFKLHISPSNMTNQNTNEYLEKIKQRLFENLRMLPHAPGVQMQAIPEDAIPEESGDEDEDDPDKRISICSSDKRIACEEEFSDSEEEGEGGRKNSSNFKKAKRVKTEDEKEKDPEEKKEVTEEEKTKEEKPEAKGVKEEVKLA

| SMILES | Activity (HCT-116 [1]) | Activity (HCT-116 [2]) | Activity (U-937 [3]) | Activity [4] | Activity (U-937 [5]) | IC50 (Histone deacetylase) [nM] | Activity (HCT-116 [6]) [%] | Activity (U-937 [7]) | Activity (HCT-116 [8]) | Activity (U-937 [9]) | Activity [10] | Activity (U-937 [11]) | Activity [12] | inhibition [13] [%] | IC50 (Histone deacetylase 1 [14]) [nM] | inhibition (Histone deacetylase 1 [15]) [%] | Activity (U-937 [16]) | Activity (HCT-116 [17]) | Activity [18] | Activity [19] | further results |
| --- | --- | --- | --- | --- | --- | --- | --- | --- | --- | --- | --- | --- | --- | --- | --- | --- | --- | --- | --- | --- | --- |
| Cc1ccc(C2CC(=O)N(CCCCCC(=O)NO)c3ccccc3S2)cc1 (racemic) | Active | Active | Active | Active | Active | 123.4 | 22 | Active | Active | Active | Active | Active | Active |  |  |  |  |  |  |  |  |
| COc1ccc(C2CC(=O)N(CCCCCC(=O)NO)c3ccccc3S2)cc1 (racemic) | ~75% | Active | Active | Active | Active | 118.3 | 22 | Active | Active | Active | Active | Active | Active |  |  |  |  |  |  |  |  |
| O=C(CCCCCN1C(=O)CC(c2c3ccccc3cc3ccccc23)Sc2ccccc21)NO (racemic) | Active | Active | Active | Active | Active | 246 | 22 | Active | Active | Active | Active | Active | Active |  |  |  |  |  |  |  |  |
| O=C(CCCCCCC(=O)Nc1ccc([C@H]2O[C@@H](CSc3nc(-c4ccccc4)c(-c4ccccc4)o3)C[C@@H](c3ccc(CO)cc3)O2)cc1)NO |  |  |  |  |  |  |  |  |  |  |  |  |  | 94.3 |  |  |  |  |  |  |  |
| O=C(CCCCCN1C(=O)CC(c2ccccc2Cl)S(=O)(=O)c2ccccc21)NO (racemic) | Active | Active |  | Active | Active | 40.6 |  | Active |  |  | Active | ~6% | Active | 99.4 | 270 | 92.6 | Active | Active | Active | Active | Activity (U-937 [20]): Active; Activity (HCT-116 [21]): Active |
| O=C(CCCCCN1C(=O)C[C@H](c2ccc(Cl)c(Cl)c2)Sc2ccccc21)NO | Active | Active | Active | Active | Active | 274.4 | 22 | Active | Active | Active |  | Active | Active |  |  |  |  |  |  |  |  |
| O=C(CCCCCN1C(=O)CC(c2cccc3ccccc23)Sc2ccccc21)NO (racemic) | Active | Active | Active | Active | Active | 259.3 | 22 | Active | Active | Active | Active | Active | Active |  |  |  |  |  |  | Active |  |
| Cc1ccc(C2CC(=O)N(CCCCCC(=O)NO)c3ccccc3S2(=O)=O)cc1 (racemic) | Active | Active |  | Active | Active | 42.2 |  | Active |  |  | Active | ~6% | Active | 98.6 | 175 | 93.5 | Active | Active | Active | Active | Activity (U-937 [20]): Active; Activity (HCT-116 [21]): Active |
| O=C(CCCCCN1C(=O)CC(c2cccc3ccccc23)S(=O)(=O)c2ccccc21)NO (racemic) | Active | Active |  | Active | Active | 77.9 |  | Active |  |  | Active | ~6% | Active | 99.3 | 378 | 80.9 | Active | Active | Active | Active | Activity (U-937 [20]): Active; Activity (HCT-116 [21]): Active |
| COc1ccc(C2CC(=O)N(CCCCCC(=O)NO)c3ccccc3S2(=O)=O)cc1 (racemic) | Active | Active |  | Active | Active | 114.6 |  | Active |  |  | Active | ~6% | Active | 95.8 | 248 | 94.2 | Active | Active | Active | Active | Activity (U-937 [20]): Active; Activity (HCT-116 [21]): Active |
| O=C(CCCCCN1C(=O)CC(c2ccccc2Cl)Sc2ccccc21)NO (racemic) | Active | Active | Active | Active | Active | 109.4 | 22 | Active | Active | Active | Active | Active | Active |  |  |  |  |  |  |  |  |
